According to ChEMBL document CHEMBL5360581, “Discovery of a novel dual functional phenylpyrazole-styryl hybrid that induces apoptotic and autophagic cell death in bladder cancer cells” (Eur J Med Chem, 2023):
Calls of active or inactive are those of the source. No cut-off for these calls is given here.

Legend:
SW-620 [1] = test: Antiproliferative activity against human SW620 cells assessed as reduction in cell viability at 20 uM measured for 72 hrs by MTT assay; type: functional, cell-based
A549 [2] = test: Antiproliferative activity against human A549 cells assessed as reduction in cell viability at 20 uM measured for 72 hrs by MTT assay; type: functional, cell-based
EJ-28 [3] = test: Antiproliferative activity against human EJ-28 cells assessed as reduction in cell viability at 20 uM measured for 72 hrs by MTT assay; type: functional, cell-based
HT-1080 [4] = test: Antiproliferative activity against human HT-1080 cells assessed as reduction in cell viability at 20 uM measured for 72 hrs by MTT assay; type: functional, cell-based
MCF7 [5] = test: Antiproliferative activity against human MCF7 cells assessed as reduction in cell viability at 20 uM measured for 72 hrs by MTT assay; type: functional, cell-based
SW-620 [6] = test: Cytotoxicity against human SW620 cells assessed inhibition of cell growth incubated for 72 hrs by MTT assay; type: functional, cell-based; conditions: SW-620, 72 h
A549 [7] = test: Cytotoxicity against human A549 cells assessed inhibition of cell growth incubated for 72 hrs by MTT assay; type: functional, cell-based; conditions: A549, 72 h
EJ-28 [8] = test: Cytotoxicity against human EJ-28 cells assessed inhibition of cell growth incubated for 72 hrs by MTT assay; type: functional, cell-based; conditions: EJ-28, 72 h
HT-1080 [9] = test: Cytotoxicity against human HT-1080 cells assessed inhibition of cell growth incubated for 72 hrs by MTT assay; type: functional, cell-based; conditions: HT-1080, 72 h
MCF7 [10] = test: Cytotoxicity against human MCF7 cells assessed inhibition of cell growth incubated for 72 hrs by MTT assay; type: functional, cell-based; conditions: MCF7, 72 h
[11] = Cytotoxicity against human NHDF cells assessed inhibition of cell growth incubated for 72 hrs by MTT assay; type: toxicity, cell-based
[12] = Selectivity index, ratio of IC50 for cytotoxicity against human NHDF cells to IC50 for cytotoxicity against human SW620 cells
[13] = Selectivity index, ratio of IC50 for cytotoxicity against human NHDF cells to IC50 for cytotoxicity against human A549 cells; type: toxicity, cell-based; conditions: NHDF cells and A549 cells, read-out: Ratio IC50
[14] = Selectivity index, ratio of IC50 for cytotoxicity against human NHDF cells to IC50 for cytotoxicity against human EJ-28 cells
[15] = Selectivity index, ratio of IC50 for cytotoxicity against human NHDF cells to IC50 for cytotoxicity against human HT-1080 cells
[16] = Selectivity index, ratio of IC50 for cytotoxicity against human NHDF cells to IC50 for cytotoxicity against human MCF7 cells; type: toxicity, cell-based; conditions: NHDF cells and MCF7 cells, read-out: Ratio IC50

| SMILES | Activity (SW-620 [1]) | Activity (A549 [2]) | Activity (EJ-28 [3]) | Activity (HT-1080 [4]) | Activity (MCF7 [5]) | IC50 (SW-620 [6]) [µM] | IC50 (A549 [7]) [µM] | IC50 (EJ-28 [8]) [µM] | IC50 (HT-1080 [9]) [µM] | IC50 (MCF7 [10]) [µM] | IC50 at 72 h [11] [µM] | Ratio IC50 [12] | selectivity ratio [13] | Ratio IC50 [14] | Ratio IC50 [15] | selectivity ratio [16] |
| --- | --- | --- | --- | --- | --- | --- | --- | --- | --- | --- | --- | --- | --- | --- | --- | --- |
| Oc1ccccc1-c1cc(/C=C/c2ccc(Cl)c(Cl)c2)nn1-c1ccccc1 | Active | Active | Active | Active | Active | 18.6 | 21.5 | 15.9 | 22.2 | 18.1 | 43.5 | 2 | 2 | 2 | 2 | 2 |
| Cc1ccc(/C=C/c2cc(-c3cc(Cl)ccc3O)n(-c3ccccc3)n2)s1 | Active | Active | Active | Active | Active | 23 | 22.7 | 8.6 | 21.7 | 11.1 | 39.4 | 1.7 | 1.7 | 1.7 | 1.7 | 1.7 |
| O=c1[nH]cc(F)c(=O)[nH]1 [FLUOROURACIL] | – | – | – | – | – | 32.5 | 7.6 | 11.4 | 6 | – | > 50 | 1.5 | – | 1.5 | 1.5 | – |
| COc1cccc(/C=C/c2cc(-c3cc(Cl)ccc3O)n(-c3ccccc3)n2)c1 | Active | Active | Active | Active | Active | 19.5 | 16.5 | 8.6 | 17.4 | 10.9 | 45.6 | 2.3 | 2.3 | 2.3 | 2.3 | 2.3 |
| Cc1ccc(/C=C/c2cc(-c3ccccc3O)n(-c3ccccc3)n2)s1 | Active | Active | Active | Active | Active | 16.2 | 14.5 | 11 | 14.2 | 12.6 | 17.9 | 1.1 | 1.1 | 1.1 | 1.1 | 1.1 |
| Oc1ccccc1-c1cc(/C=C/c2ccccc2Cl)nn1-c1ccccc1 | Active | Active | Active | Active | Active | 15.7 | 22.4 | 11.7 | 16.9 | 15.3 | > 50 | >2.2 | > 2.2 | >2.2 | >2.2 | > 2.2 |
| COc1ccc(/C=C/c2cc(-c3cc(Cl)ccc3O)n(-c3ccccc3)n2)cc1OC | Active | Active | Active | Active | Active | 16.1 | 15.3 | 17.6 | 14.5 | 9.6 | 39.9 | 2.5 | 2.5 | 2.5 | 2.5 | 2.5 |
| COc1ccc(/C=C/c2cc(-c3ccccc3O)n(-c3ccccc3)n2)cc1 | Active | Active | Active | Active | Active | 7.9 | 20.8 | 12.9 | 14.7 | 13 | > 50 | >2.4 | > 2.4 | >2.4 | >2.4 | > 2.4 |
| Oc1ccc(Cl)cc1-c1cc(/C=C/c2ccc(Cl)s2)nn1-c1ccccc1 | Active | Active | Active | Active | Active | 10.4 | 13.3 | 10.1 | 13.5 | 8.7 | 19.2 | 1.4 | 1.4 | 1.4 | 1.4 | 1.4 |
| O=[N+]([O-])c1cccc(/C=C/c2cc(-c3ccccc3O)n(-c3ccccc3)n2)c1 | Active | Active | Active | Active | Active | 9.7 | 21.7 | 7.4 | 16.5 | 15 | 42.9 | 2 | 2 | 2 | 2 | 2 |
| Oc1ccccc1-c1cc(/C=C/c2cccc(Cl)c2)nn1-c1ccccc1 | Active | Active | Active | Active | Active | 11.6 | 24.3 | 8.9 | 13.8 | 10.9 | 39.4 | 1.6 | 1.6 | 1.6 | 1.6 | 1.6 |
| COc1cc(/C=C/c2cc(-c3cc(Cl)ccc3O)n(-c3ccccc3)n2)cc(OC)c1OC | Active | Active | Active | Active | Active | 4.4 | 9.4 | 10.1 | 8.9 | 5.9 | 39.6 | 3.9 | 3.9 | 3.9 | 3.9 | 3.9 |
| Oc1ccc(Cl)cc1-c1cc(/C=C/c2ccc(Cl)c(Cl)c2)nn1-c1ccccc1 | Active | Active | Active | Active | Active | 19.2 | 20.2 | 4.4 | 17.8 | 15 | 40.2 | 2 | 2 | 2 | 2 | 2 |
| Oc1ccc(Cl)cc1-c1cc(/C=C/c2ccc(Cl)cc2)nn1-c1ccccc1 | Active | Active | Active | Active | Active | 16.6 | 21.5 | 6.5 | 17.4 | 10.6 | 42.9 | 2 | 2 | 2 | 2 | 2 |
| Oc1ccccc1-c1cc(/C=C/c2cccs2)nn1-c1ccccc1 | Active | Active | Active | Active | Active | 11.9 | 18.5 | 14.3 | 12.8 | 9.1 | 19.2 | 1 | 1 | 1 | 1 | 1 |
| Oc1ccc(Cl)cc1-c1cc(/C=C/c2cccs2)nn1-c1ccccc1 | Active | Active | Active | Active | Active | 19 | 17.1 | 11.6 | 19.6 | 5.5 | 39.6 | 2 | 2 | 2 | 2 | 2 |
| Oc1ccc(Cl)cc1-c1cc(/C=C/c2cccc(Cl)c2)nn1-c1ccccc1 | Active | Active | Active | Active | Active | 8.8 | 13.3 | 3.7 | 12.4 | 8.1 | 16.2 | 1.2 | 1.2 | 1.2 | 1.2 | 1.2 |
